# Target: α-glucosidase
# Test: enzyme inhibition assay with p-nitrophenyl-D-glycopyranoside substrate
# Assay type: biochemical
row,SMILES,IC50 [nM]
1,COc1cc(O)c2c(=O)cc(-c3ccccc3O)oc2c1OC [Skullcapflavone I],103 ± 8.43
2,COc1cccc(O)c1-c1cc(=O)c2c(O)c(OC)c(OC)c(OC)c2o1 [Skullcapflavone II],95 ± 11.5
